Source: PubChem BioAssay AID330 (DTP/NCI, 2004)
Where “and” joins values, the source holds several entries; their conditions need not be identical. Equal values may be shown once. Inconclusive results and toxic doses are left out.

System: P388 leukemia ip, CD2F1 mice, survival T/C
Assay: NCI In Vivo Anticancer Drug Screen. Data for tumor model P388 Leukemia (intraperitoneal) in CD2F1 (CDF1) mice
Conditions: endpoint: median survival time, higher = longer survival
How it was run: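 Mice carrying the transplanted tumor received test compound or vehicle. Survival was recorded in each group, and the value is the treated-group measurement divided by that of the vehicle-treated control group.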

## CN(C)c1nc(NC=O)nc(N(C)C)n1
dose: 50.0 mg/kg/injection, schedule: Q04DX002 (ip), vehicle: saline with Tween-80
  T/C: 99 % of control
dose: 100.0 mg/kg/injection, schedule: Q04DX002 (ip), vehicle: saline with Tween-80
  T/C: 99 % of control
dose: 200.0 mg/kg/injection, schedule: Q04DX002 (ip), vehicle: saline with Tween-80
  T/C: 100 % of control

## CC(C)NC(=O)OCc1c(COC(=O)NC(C)C)c(-c2ccc(Cl)c(Cl)c2)n2c1CCC2
dose: 0.58 mg/kg/injection, schedule: Q01DX009 (ip), vehicle: saline with Tween-80
  T/C: 112 % of control
dose: 1.17 mg/kg/injection, schedule: Q01DX009 (ip), vehicle: saline with Tween-80
  T/C: 120 % of control
dose: 1.5 mg/kg/injection, schedule: Q01DX001 (ip), vehicle: other
  T/C: 109 % of control
dose: 1.5 mg/kg/injection, schedule: Q01DX001 (iv), vehicle: other
  T/C: 102 % of control
dose: 1.5 mg/kg/injection, schedule: Q01DX005 (ip), vehicle: other
  T/C: 122 % of control
dose: 1.5 mg/kg/injection, schedule: Q01DX005 (iv), vehicle: other
  T/C: 107 % of control
dose: 1.5 mg/kg/injection, schedule: Q01DX005 (oral), vehicle: other
  T/C: 98 % of control
dose: 1.5 mg/kg/injection, schedule: Q01DX009 (oral), vehicle: other
  T/C: 100 % of control
dose: 1.56 mg/kg/injection, schedule: Q01DX009 (ip), vehicle: distilled water + Tween-80
  T/C: 122 % of control
dose: 2.34 mg/kg/injection, schedule: Q01DX009 (ip), vehicle: other
  T/C: 151 % of control
dose: 2.34 mg/kg/injection, schedule: Q01DX009 (ip), vehicle: saline with Tween-80
  T/C: 151 % of control
dose: 3.0 mg/kg/injection, schedule: Q01DX001 (ip), vehicle: other
  T/C: 116 % of control
dose: 3.0 mg/kg/injection, schedule: Q01DX001 (iv), vehicle: other
  T/C: 100 % of control
dose: 3.0 mg/kg/injection, schedule: Q01DX001 (oral), vehicle: other
  T/C: 98 % of control
dose: 3.0 mg/kg/injection, schedule: Q01DX005 (iv), vehicle: other
  T/C: 108 % of control
dose: 3.0 mg/kg/injection, schedule: Q01DX005 (oral), vehicle: other
  T/C: 100 % of control
dose: 3.0 mg/kg/injection, schedule: Q01DX009 (oral), vehicle: other
  T/C: 100 % of control
dose: 3.13 mg/kg/injection, schedule: Q01DX009 (ip), vehicle: distilled water + Tween-80
  T/C: 117 % of control
dose: 4.69 mg/kg/injection, schedule: Q01DX009 (ip), vehicle: other
  T/C: 154 % of control
dose: 4.69 mg/kg/injection, schedule: Q01DX009 (ip), vehicle: saline with Tween-80
  T/C: 150 % of control and 153 % of control
dose: 6.0 mg/kg/injection, schedule: Q01DX001 (iv), vehicle: other
  T/C: 104 % of control
dose: 6.0 mg/kg/injection, schedule: Q01DX001 (oral), vehicle: other
  T/C: 99 % of control
dose: 6.0 mg/kg/injection, schedule: Q01DX005 (iv), vehicle: other
  T/C: 114 % of control
dose: 6.0 mg/kg/injection, schedule: Q01DX005 (oral), vehicle: other
  T/C: 98 % of control
dose: 6.0 mg/kg/injection, schedule: Q01DX009 (ip), vehicle: other
  T/C: 152 % of control
dose: 6.0 mg/kg/injection, schedule: Q01DX009 (oral), vehicle: other
  T/C: 100 % of control
dose: 6.25 mg/kg/injection, schedule: Q01DX005 (ip), vehicle: Klucel (hydroxypropylcellulose) (HPC)
  T/C: 164 % of control and 168 % of control
dose: 6.25 mg/kg/injection, schedule: Q01DX005 (ip), vehicle: other
  T/C: 164 % of control
dose: 6.25 mg/kg/injection, schedule: Q01DX005 (ip), vehicle: saline with Tween-80
  T/C: 151 % of control
dose: 6.25 mg/kg/injection, schedule: Q01DX009 (ip), vehicle: other
  T/C: 155 % of control and 160 % of control
dose: 6.25 mg/kg/injection, schedule: Q01DX009 (ip), vehicle: saline with Tween-80
  T/C: 158 % of control
dose: 6.25 mg/kg/injection, schedule: Q01DX009 (oral), vehicle: distilled water + Tween-80
  T/C: 97 % of control
dose: 7.5 mg/kg/injection, schedule: Q01DX005 (ip), vehicle: saline with Tween-80
  T/C: 118 % of control
dose: 9.38 mg/kg/injection, schedule: Q01DX009 (ip), vehicle: other
  T/C: 154 % of control and 198 % of control
dose: 9.38 mg/kg/injection, schedule: Q01DX009 (ip), vehicle: saline with Tween-80
  T/C: 157 % of control
dose: 12.0 mg/kg/injection, schedule: Q01DX001 (iv), vehicle: other
  T/C: 113 % of control
dose: 12.0 mg/kg/injection, schedule: Q01DX001 (oral), vehicle: other
  T/C: 100 % of control
dose: 12.0 mg/kg/injection, schedule: Q01DX005 (ip), vehicle: other
  T/C: 153 % of control
dose: 12.0 mg/kg/injection, schedule: Q01DX005 (oral), vehicle: other
  T/C: 100 % of control
dose: 12.0 mg/kg/injection, schedule: Q01DX009 (ip), vehicle: other
  T/C: 169 % of control
dose: 12.0 mg/kg/injection, schedule: Q01DX009 (oral), vehicle: other
  T/C: 102 % of control
dose: 12.5 mg/kg/injection, schedule: Q01DX005 (ip), vehicle: Klucel (hydroxypropylcellulose) (HPC)
  T/C: 151 % of control and 160 % of control and 163 % of control
dose: 12.5 mg/kg/injection, schedule: Q01DX005 (ip), vehicle: other
  T/C: 177 % of control
dose: 12.5 mg/kg/injection, schedule: Q01DX009 (ip), vehicle: other
  T/C: 165 % of control and 167 % of control
dose: 12.5 mg/kg/injection, schedule: Q01DX009 (ip), vehicle: saline with Tween-80
  T/C: 151 % of control
dose: 12.5 mg/kg/injection, schedule: Q01DX009 (oral), vehicle: distilled water + Tween-80
  T/C: 103 % of control
dose: 18.75 mg/kg/injection, schedule: Q01DX009 (ip), vehicle: saline with Tween-80
  T/C: 166 % of control and 167 % of control
dose: 24.0 mg/kg/injection, schedule: Q01DX001 (oral), vehicle: other
  T/C: 100 % of control
dose: 24.0 mg/kg/injection, schedule: Q01DX005 (ip), vehicle: other
  T/C: 178 % of control
dose: 24.0 mg/kg/injection, schedule: Q01DX005 (oral), vehicle: other
  T/C: 102 % of control
dose: 24.0 mg/kg/injection, schedule: Q01DX009 (ip), vehicle: other
  T/C: 184 % of control
dose: 24.0 mg/kg/injection, schedule: Q01DX009 (oral), vehicle: other
  T/C: 102 % of control
dose: 25.0 mg/kg/injection, schedule: Q01DX005 (ip), vehicle: Klucel (hydroxypropylcellulose) (HPC)
  T/C: 154 % of control and 168 % of control and 179 % of control
dose: 25.0 mg/kg/injection, schedule: Q01DX005 (ip), vehicle: other
  T/C: 199 % of control
dose: 25.0 mg/kg/injection, schedule: Q01DX005 (ip), vehicle: saline with Tween-80
  T/C: 162 % of control
dose: 25.0 mg/kg/injection, schedule: Q01DX009 (ip), vehicle: Klucel (hydroxypropylcellulose) (HPC)
  T/C: 168 % of control
dose: 25.0 mg/kg/injection, schedule: Q01DX009 (ip), vehicle: other
  T/C: 100 % of control
dose: 25.0 mg/kg/injection, schedule: Q01DX009 (ip), vehicle: saline with Tween-80
  T/C: 166 % of control
dose: 25.0 mg/kg/injection, schedule: Q01DX009 (oral), vehicle: distilled water + Tween-80
  T/C: 92 % of control
dose: 40.0 mg/kg/injection, schedule: Q01DX009 (ip), vehicle: Klucel (hydroxypropylcellulose) (HPC)
  T/C: 155 % of control
dose: 48.0 mg/kg/injection, schedule: Q01DX001 (ip), vehicle: other
  T/C: 168 % of control
dose: 48.0 mg/kg/injection, schedule: Q01DX001 (oral), vehicle: other
  T/C: 100 % of control
dose: 48.0 mg/kg/injection, schedule: Q01DX005 (ip), vehicle: other
  T/C: 174 % of control
dose: 48.0 mg/kg/injection, schedule: Q01DX005 (oral), vehicle: other
  T/C: 107 % of control
dose: 48.0 mg/kg/injection, schedule: Q01DX009 (ip), vehicle: other
  T/C: 106 % of control
dose: 48.0 mg/kg/injection, schedule: Q01DX009 (oral), vehicle: other
  T/C: 119 % of control
dose: 50.0 mg/kg/injection, schedule: Q01DX005 (ip), vehicle: Klucel (hydroxypropylcellulose) (HPC)
  T/C: 163 % of control and 205 % of control and 206 % of control
dose: 50.0 mg/kg/injection, schedule: Q01DX005 (ip), vehicle: other
  T/C: 186 % of control
dose: 50.0 mg/kg/injection, schedule: Q01DX009 (ip), vehicle: Klucel (hydroxypropylcellulose) (HPC)
  T/C: 239 % of control
dose: 50.0 mg/kg/injection, schedule: Q01DX009 (ip), vehicle: saline with Tween-80
  T/C: 187 % of control
dose: 50.0 mg/kg/injection, schedule: Q01DX009 (oral), vehicle: distilled water + Tween-80
  T/C: 110 % of control
dose: 60.0 mg/kg/injection, schedule: Q01DX005 (ip), vehicle: saline with Tween-80
  T/C: 151 % of control
dose: 100.0 mg/kg/injection, schedule: Q01DX005 (ip), vehicle: saline with Tween-80
  T/C: 90 % of control
dose: 100.0 mg/kg/injection, schedule: Q01DX009 (ip), vehicle: distilled water + Tween-80
  T/C: 113 % of control
dose: 100.0 mg/kg/injection, schedule: Q01DX009 (ip), vehicle: saline with Tween-80
  T/C: 177 % of control
dose: 100.0 mg/kg/injection, schedule: Q01DX009 (oral), vehicle: distilled water + Tween-80
  T/C: 97 % of control
dose: 200.0 mg/kg/injection, schedule: Q01DX005 (ip), vehicle: distilled water + Tween-80
  T/C: 104 % of control
dose: 200.0 mg/kg/injection, schedule: Q01DX009 (oral), vehicle: distilled water + Tween-80
  T/C: 111 % of control
